“Also recorded” adds a separate entry of the source.
Key:
[1] = Experiment 3: serum calcium, phosphate, alkaline phosphatase and body weight after 6 weeks; assay type: in vivo, Male Wistar rats; conditions: for Serum Alkaline phosphatase: 6 weeks
Experimental: Male, Wistar rats were obtained at 120-130 g, and placed on a 0.01% calcium, 0.7% phosphate diet that was vitamin D deficient (Teklad Test Diets, Madison, WI) this was for one week to help deplete vitamin D stores. For the next three weeks the rats were fed the vitamin D-deficient diet, but with normal, 0.5%, calcium. Starting with these 3 weeks, the rats were divided into four vitamin D3 -treatment groups, initially, nine rats per group: group a) supplemented once weekly with 0.6 μg vitamin D3 (average dose, 0.08 μg/day); group b) supplemented once every second day with vitamin D3 to provide 2 nmol/day, i.e., each dose was 4 nmol of vitamin D3; group c) supplemented once every second day with vitamin D3 to provide 8 μg/day. The preceding groups all received the vitamin D3 through an infant-feeding tube inserted through the mouth into the stomach. One group, d), received its vitamin D3 in the ethanol applied onto a shaved 2 cm×2 cm patch of skin on the back, this was done every second day to provide vitamin D3 at 8 μg/day. The volume of each dose of vitamin D3 given was adjusted so that the stated doses are per 250 g body weight. Over a second 3-week period while maintaining the described vitamin D3 dosing regimens, diet calcium content was changed weekly and blood sampling was started (that is, changes in calcium and sampling was from weeks 4 to 6, inclusive, of receiving the appropriate vitamin D3 supplement). Diet calcium was first dropped to 0.01% then raised to 1.5% and finally dropped again to 0.01%. For each week of dietary calcium manipulation, blood was obtained at day zero (the day of but just prior to the change in calcium), and days 1, 3, and 7 after the change. During the first week, 0.5 mL of blood was taken on the first two of these days and anticoagulated with heparin, the cells were isolated and resuspended in normal rat plasma and reinjected into the femoral vein. […] For the subsequent samplings, only 0.2-0.3 mL of blood was taken by bleeding from the tail into precalibrated microcentrifuge tubes. In this way, the bleeds prior to sacrifice removed a net total of less than 2 mL of blood, that is, less than or equal to 10% of the blood volume. Samples of daytime urine was collected into microfuge tubes that were fastened to the cones of metabolic collection funnels designed to hang under the wire cages. The cages and cones were rinsed with 0.1 mol/L hydrochloric acid prior to each collection. To eliminate contamination of the urine with diet, stool or water, the rats were placed into these separate cages only during the urine-collection period, until about 1 mL urine was present in the microfuge tube, this was typically within 5 min to one hour. […]

[2] = Experiment 1: serum radioactivity after one administration of radiolabelled vitamin D3 (intracardiac, gastric, dermal); assay type: in vivo, Wistar rats
Description: Each point is the mean of 3-6 rats;
A comparison of serum radioactivity after one administration of radiolabelled vitamin D3 via the skin or gut, compared to intravascular injection.
The protocols and procedures used in this work were approved beforehand by an animal-care committee at the University of Toronto. Wistar rats, 250-g weight and fed normal diet, were divided into three groups of six, and each rat was given 400,000 cpm of […] (57 mCi/mmol, Amersham, UK). One group was given the [^14 C]-vitamin D3 by intracardiac injection; one group was given the tracer through an infant-feeding tube, directly into the stomach; and one group received the dose by application in 50 μL ethanol to a 2×2 cm patch of shaved skin on the lower back. Blood was taken by bleeding 0.25 mL from the tail, from three rats at a time, for each time indicated in the graph, except for the final sample at 3 wk, which is from all rats at the time of killing with an anesthetic overdose. The serum was counted in a Beckman LS6800 beta-counter and results are corrected for background, sample volume, and rat weight.

[3] = Experiment 2: uptake of [14C]-vitamin D3 tracer into serum and conversion to [14C]-25(OH)D3; assay type: in vivo, Male Wistar rats; conditions: tracer added to last day's dose
Experimental: One dose of [carbon-14]-labelled vitamin D3 was given at the time of the last of 14 daily doses of nonradioactive vitamin D3. The graphs show the uptake and metabolism of one [^14 C]-vitamin D3 dose during the course of gastric or dermal supplementation with vitamin D3. The tracer was given in addition to the usual, 8 μg/day vitamin D3 dose, and by the same route. Radioactivity in serum was isolated by chromatography to measure that which elutes as vitamin D3, or as […], Each point is the mean of results from six rats;
Uptake of radioactive vitamin D3 from skin or gut during the longer term treatment with vitamin D3 at 20 nmol/day.
The previous experiment 1 involved only one acute dose of a minute, tracer amount of vitamin D3. It remained possible that dermal application could not deliver a larger, more nutritionally relevant amount of vitamin D3. This experiment 2 looked at what happens when vitamin D3 is given during the course of daily treatment with a moderate amount of vitamin D3.
After 30 days, the rats were divided into three groups of 6: one group continued with no supplement, one group was given daily vitamin D3 supplement, 8 μg/day either by gastric tube, the third received the supplement by application to the skin in 50 μL ethanol. Vitamin D3 was given for 3 wk. The day before the rats were killed, the vitamin D3 dose was supplemented with [^14 C]-labelled vitamin D3, 915,000 cpm per rat. Blood was obtained from the tail of each rat at 3 h, 9 h, and by heart puncture when the rats were anesthetized for killing, 24 h after giving the tracer. The blood was extracted and chromatographed to distinguish [^14 C]-vitamin D3 from the [^14 C]-25(OH)D3generated from it. Radioactivity was also measured in the liver, kidney, and adipose tissue. Serum nonradioactive 25(OH)D3 was also measured.

[4] = 50 μg in 10 μL 95% ethanol, shaved skin of rats; cited from earlier work
[5] = Experiment 4: short-term serum 25(OH)D3 response to increasing vitamin D3 doses; assay type: in vivo, rats; conditions: first 48 hours
Experimental: Each point represents the mean ±SEM of 7 normal, 250-g rats;
(§1) Toxicity: Short-term responses to increasing doses of vitamin D3 given dermally or by gastric tube.
(§2) To compare the efficacy of increasing doses of vitamin D3 in the short term. A fatal oral vitamin D3 dose is 14 days of 2600 μg/day (Sheppard RM and DeLuca HF, Arch Biochem Biophys 1980; 202: 43-55). The present experiment was designed to compare effects of doses up to this level, given by gastric tube or dermally.

[6] = Experiment 4: urinary calcium to creatinine ratio after gastric or dermal vitamin D3; assay type: in vivo, rats
Experimental: Each point represents the mean ±SEM of 7 normal, 250-g rats.
as §1, §2

Compound: C=C1CC[C@H](O)C/C1=C/C=C1\CCC[C@]2(C)[C@@H]([C@H](C)CCCC(C)C)CC[C@@H]12 [vitamin D3]
- Serum Alkaline phosphatase ([1]; 0.08 μg/day diet): 119 U/L
- Serum Alkaline phosphatase ([1]; 0.8 μg/day G1 (gastric)): 151 U/L
- Serum Alkaline phosphatase ([1]; 8 μg/day G1 (gastric)): 147 U/L
- Serum Alkaline phosphatase ([1]; 8 μg/day dermal): 152 U/L
- body weight difference between groups ([1]; end of experiment 3): no weight differences between the groups
- difference in serum radioactivity between dermal and oral groups ([2]; 3 wk): not statistically significant
- vitamin D3 delivered into the blood compared to direct injection ([2]; dermal and gastric): less than half
- rate of uptake into the circulation from the skin vs gut ([2]; one tracer dose, rats): more slowly than from the gut
- radioactivity in kidney, liver, and adipose tissues ([2]; radioactive vitamin D3): paralleled to the serum levels
- rate of uptake into circulation, dermal vs gastric [3]: more slowly when given via the dermal route
- response (intestinal calcium transport and serum calcium) [4]: no response was detected
- serum 25(OH)D3 vs dose ([5]; dermal, 800 to 2600 μg): does not parallel the vitamin D3 dose beyond the 800 μg (2000 nmol)/day dose; also recorded: striking plateau
- serum 25(OH)D3 vs dose ([5]; gastric, up to 2600 μg): parallels the vitamin D3 dose; also recorded: increased in a direct parallel to the dose
- increase in calcium in the urine ([6]; highest dermal dose): 2.5 -fold
- increase in calcium in the urine ([6]; highest gastric dose): 6 -fold
